Experiments:
PIK3CA (p110α) = PIK3CA (p110α) (Homo sapiens, UniProt P42336); assay: PI-3K isoform inhibition, p110α (PIK3CA); the text calls it cell based; details: cell proliferation assays versus p110α and p110β isoforms
Text: PX-866 is an pan-isoform inhibitor of Class I P1-3K that covalently binds to ATP binding site of the p110 catalytic subunit.

[1] = Phase I trial of oral PX-866: clinical pharmacokinetics; assay type: in vivo, human
advanced solid tumors = assay: Phase I trial of oral PX-866: tumor response by RECIST; assay type: in vivo, human; details: 1 to 7 prior treatments, median 4 prior systemic regimens
Procedure: (§1) This was an Open-label dose escalation study with expansion cohort at Maximal Tolerated Dose (MTD), 3+3 design and to test efficacy of 2 dosing schedules (intermittent and continuous). PX-866 was administered as an oral dose.
Patient response was evaluated according to Response Evaluation Criteria in Solid Tumors (RECIST). Briefly, all measurable lesions up to a maximum of five lesions, representative of all involved organs were identified as target lesions and recorded and measured at baseline. Target lesions were selected on the basis of their size (lesions with the longest diameter) and their suitability for accurate repeated measurements (either by imaging techniques or clinically). A sum of the longest diameter (LD) for all target lesions was calculated and reported as the baseline sum LD. The baseline sum LD was used as reference by which to characterize the objective tumor. All other lesions (or sites of disease) were identified as non-target lesions and were also be recorded at baseline. Measurements of these lesions were not required, but the presence or absence of each was noted throughout follow-up.
A Complete Response (CR) indicated a disappearance of all target lesions.

p-AKT/T-AKT = assay: Clinical pharmacodynamics: p-AKT/T-AKT after a single oral dose; assay type: in vivo, human; details: 3 of 4 patients, 8 mg dose level, 4 hours after a single oral dose
PI-3K pathway = assay: Clinical pharmacodynamics: PBMCs stimulated ex vivo, FACS based assay (p-mTOR, p-S6); assay type: in vivo, human; details: PBMCs of treated patients stimulated ex vivo
Procedure: The pharmacodynamic effects of PX-866 in patients treated in the phase I single agent study were assessed using isolated peripheral blood mononuclear cells (PBMCs) stimulated ex vivo via FACS based assay. […] The study provided Evidence for pathway inhibition lasting up to 3 days post-treatment.

[2] = Phase I trial of oral PX-866: safety, DLT and MTD; assay type: in vivo, human; details: for Maximal Tolerated Dose (MTD): oral
Procedure: as §1
The primary and secondary objectives were tested using two different dosing regimens: 10 days of drug administration and daily administration for 28 days.
Intermittent schedule: 10 dose levels tested (0.5-16 mg). The starting dose level was 0.5 mg. Doses increased as follows: 100% escalation up to 2 mg, 50% escalation up to 4.5 mg, and approximately 30% escalation until the MTD is identified. The highest dose level at which no more than 1/6 patients experiences DLT was declared the MTD. The resulting dose levels were: 0.5, 1, 2, 3, 4.5, 6, 8, 10, 12 and 16 mg.
FIG. 1 illustrates the dosing schedule for intermittent dosing where PX-866 was given to patients on days 1-5 and 8-12 of a 28-day cycle.
Continuous dosing schedule: The starting dose was two dose levels below the MTD of intermittent dosing (8 mg) and subsequent dose levels was one or two dose levels (10 mg or 8 mg) below the MTD of intermittent dosing dependent on recommendation of the dose cohort review committee. FIG. 1 illustrates the dosing schedule for continuous dosing.

PIK3CA (p110α), sequence (P42336 whole entry, canonical isoform): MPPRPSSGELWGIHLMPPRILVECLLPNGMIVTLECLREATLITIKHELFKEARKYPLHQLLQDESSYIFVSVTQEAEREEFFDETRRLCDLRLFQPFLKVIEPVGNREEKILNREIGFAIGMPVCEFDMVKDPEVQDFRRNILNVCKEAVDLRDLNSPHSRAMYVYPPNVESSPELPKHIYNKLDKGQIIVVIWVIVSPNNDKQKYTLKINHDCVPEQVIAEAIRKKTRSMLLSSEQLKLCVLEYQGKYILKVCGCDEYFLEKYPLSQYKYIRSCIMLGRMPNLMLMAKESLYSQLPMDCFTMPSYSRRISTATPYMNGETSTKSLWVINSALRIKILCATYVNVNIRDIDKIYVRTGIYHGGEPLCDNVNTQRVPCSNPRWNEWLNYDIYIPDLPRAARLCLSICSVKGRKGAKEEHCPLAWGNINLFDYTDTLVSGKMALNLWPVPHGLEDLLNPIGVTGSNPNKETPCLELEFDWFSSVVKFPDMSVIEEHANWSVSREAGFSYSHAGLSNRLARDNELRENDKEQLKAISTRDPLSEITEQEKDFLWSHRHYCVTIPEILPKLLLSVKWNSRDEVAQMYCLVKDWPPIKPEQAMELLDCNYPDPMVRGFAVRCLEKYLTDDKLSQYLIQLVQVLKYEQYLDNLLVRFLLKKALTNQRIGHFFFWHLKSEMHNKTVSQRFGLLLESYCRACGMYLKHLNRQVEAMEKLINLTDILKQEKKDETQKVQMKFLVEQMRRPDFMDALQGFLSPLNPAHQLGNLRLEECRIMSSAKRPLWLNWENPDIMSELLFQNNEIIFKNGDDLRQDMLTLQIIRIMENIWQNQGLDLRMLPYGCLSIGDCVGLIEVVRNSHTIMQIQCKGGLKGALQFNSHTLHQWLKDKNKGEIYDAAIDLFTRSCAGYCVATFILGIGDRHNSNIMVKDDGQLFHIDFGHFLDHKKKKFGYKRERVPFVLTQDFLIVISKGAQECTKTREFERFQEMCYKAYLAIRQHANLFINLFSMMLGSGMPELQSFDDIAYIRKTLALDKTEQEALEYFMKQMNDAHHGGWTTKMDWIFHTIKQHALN
PIK3CA (p110α), sequence (P27986 whole entry partner, canonical isoform): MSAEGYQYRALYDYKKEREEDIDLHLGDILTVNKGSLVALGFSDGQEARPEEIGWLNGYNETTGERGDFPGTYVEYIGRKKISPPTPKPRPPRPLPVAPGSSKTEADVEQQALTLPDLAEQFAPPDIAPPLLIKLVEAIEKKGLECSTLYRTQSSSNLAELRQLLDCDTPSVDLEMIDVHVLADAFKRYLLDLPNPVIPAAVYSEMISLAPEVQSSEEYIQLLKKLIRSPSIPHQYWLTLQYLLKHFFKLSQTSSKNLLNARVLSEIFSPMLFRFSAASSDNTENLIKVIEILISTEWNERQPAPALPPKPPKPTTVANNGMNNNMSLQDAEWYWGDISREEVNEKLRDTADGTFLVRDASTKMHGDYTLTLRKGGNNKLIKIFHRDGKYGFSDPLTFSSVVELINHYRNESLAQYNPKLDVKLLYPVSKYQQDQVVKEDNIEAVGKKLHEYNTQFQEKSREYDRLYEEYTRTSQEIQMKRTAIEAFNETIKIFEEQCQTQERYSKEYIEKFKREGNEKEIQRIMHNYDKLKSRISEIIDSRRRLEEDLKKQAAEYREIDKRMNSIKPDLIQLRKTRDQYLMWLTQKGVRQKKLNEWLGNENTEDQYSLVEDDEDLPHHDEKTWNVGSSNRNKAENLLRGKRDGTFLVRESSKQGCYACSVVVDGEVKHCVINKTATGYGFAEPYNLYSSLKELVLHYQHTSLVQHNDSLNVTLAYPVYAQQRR

Row | Compound | increase in potency versus the parent PX-866 (PIK3CA (p110α)) | AUC in humans compared with mice ([1]; due to an increase in mean residence time in humans) | effect on disease in prior treated patients (advanced solid tumors) | decrease in p-AKT/T-AKT (p-AKT/T-AKT) [%] | effect on the PI-3K pathway (p-mTOR, p-S6) (PI-3K pathway) | plasma level of parent PX-866 ([1]; after oral PX-866, with rare exceptions) | Maximal Tolerated Dose (MTD) ([2]; continuous daily dosing) [mg per day] | ALT/AST ([2]; continuous dosing) | Most common adverse events ([2]; continuous dosing) | Related Grade 3 events ([2]; continuous dosing section) | Dose limiting toxicity (DLT), patients affected ([2]; continuous dosing, 10 mg per day, Grade 3 diarrhea (n=2)) | Most common adverse events ([2]; intermittent dosing) | Related Grade 3 events ([2]; intermittent dosing) | Dose limiting toxicity (DLT), patients affected ([2]; intermittent dosing, 16 mg per day, Grade 3 diarrhea (n=1), Grade 3 AST (n=1)) | Maximal Tolerated Dose (MTD) ([2]; intermittent dosing, days 1-5 and 8-12 of a 28-day cycle) [mg per day] | toxicity in patients receiving >2 cycles ([2]; printed in the continuous dosing section but worded intermittent dosing schedule)
1 | C=CCN(C=C1C(=O)OC(COC)C2(C)C1=C(O)C(=O)C1=C2C(OC(C)=O)CC2(C)C(O)CCC12)CC=C (stereo not shown) [17-OH PX-866] | 2-5 fold | exceeded AUC in mice | – | – | – | – | – | – | – | – | – | – | – | – | – | –
2 | C=CCN(/C=C1/C(=O)O[C@H](COC)[C@@]2(C)C1=C(O)C(=O)C1=C2[C@H](OC(C)=O)C[C@]2(C)C(=O)CC[C@@H]12)CC=C [PX-866, Acetic acid 4-diallylaminomethylene-6-hydroxy-1-α-methoxymethyl-10β,13β-dimethyl-3,7,17-trioxo-1,3,4,7,10,11β,12,13,14α,15,16,17-dodecahydro-2-oxa-cyclopenta[α]phenanthren-11-yl ester] | – | – | stabilized disease | ≥ 60 | inhibition of the PI-3K pathway | below the limits of detection | 8 | ALT/AST elevation was observed | diarrhea, nausea, vomiting, headache and fatigue | vomiting (n=3), diarrhea (n=3), liver enzyme elevation (n=2) dehydration (n=1), worsened hypertension (n=1) | 2/3 | diarrhea, nausea, vomiting, and constipation | vomiting (n=3), diarrhea (n=3), liver enzyme elevation (n=2) dehydration (n=1), and worsened hypertension (n=1) | 2/5 | 12 | No significant increase in toxicity

Source: patent publication US20130131156A1, “Cancer Treatment with Wortmannin Analogs” (ONCOTHYREON INC., priority 2010, published 2013)
